Measurements: PubChem BioAssay (NCI)
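GI50 = concentration required for 50% inhibition of growth. At the TGI there is no net growth.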

Key:
Assay in all cases: inhibition of tumour cell growth, NCI panel, 384-well format
786-0 renal = test system: 786-0 renal
A498 renal = test system: A498 renal
A549 NSCLC = test system: A549 NSCLC
ACHN renal = test system: ACHN renal
BT-549 breast = test system: BT-549 breast
CAKI-1 renal = test system: CAKI-1 renal
CCRF-CEM leukemia = test system: CCRF-CEM leukemia
COLO 205 colon = test system: COLO 205 colon
DU-145 prostate = test system: DU-145 prostate
EKVX NSCLC = test system: EKVX NSCLC
HCC-2998 colon = test system: HCC-2998 colon
HCT-15 colon = test system: HCT-15 colon
HL-60(TB) leukemia = test system: HL-60(TB) leukemia
HOP-62 NSCLC = test system: HOP-62 NSCLC
HOP-92 NSCLC = test system: HOP-92 NSCLC
HS 578T breast = test system: HS 578T breast
HT29 colon = test system: HT29 colon
IGROV1 ovarian = test system: IGROV1 ovarian
K-562 leukemia = test system: K-562 leukemia
KM12 colon = test system: KM12 colon
LOX IMVI melanoma = test system: LOX IMVI melanoma
M14 melanoma = test system: M14 melanoma
MALME-3M melanoma = test system: MALME-3M melanoma
MCF7 breast = test system: MCF7 breast
MDA-MB-231 breast = test system: MDA-MB-231 breast
MDA-MB-435 melanoma = test system: MDA-MB-435 melanoma
MDA-MB-468 breast = test system: MDA-MB-468 breast
MOLT-4 leukemia = test system: MOLT-4 leukemia
NCI-H226 lung = test system: NCI-H226 lung
NCI-H23 lung = test system: NCI-H23 lung
NCI-H322M lung = test system: NCI-H322M lung
NCI-H460 NSCLC = test system: NCI-H460 NSCLC
NCI-H522 lung = test system: NCI-H522 lung
NCI/ADR-RES ovarian = test system: NCI/ADR-RES ovarian
OVCAR-3 ovarian = test system: OVCAR-3 ovarian
OVCAR-4 ovarian = test system: OVCAR-4 ovarian
OVCAR-5 ovarian = test system: OVCAR-5 ovarian
OVCAR-8 ovarian = test system: OVCAR-8 ovarian
PC-3 prostate = test system: PC-3 prostate
RPMI-8226 leukemia = test system: RPMI-8226 leukemia
RXF 393 renal = test system: RXF 393 renal
SF-268 CNS = test system: SF-268 CNS
SF-295 CNS = test system: SF-295 CNS
SF-539 CNS = test system: SF-539 CNS
SK-MEL-28 melanoma = test system: SK-MEL-28 melanoma
SK-MEL-5 melanoma = test system: SK-MEL-5 melanoma
SK-OV-3 ovarian = test system: SK-OV-3 ovarian
SN12C renal = test system: SN12C renal
SNB-19 CNS = test system: SNB-19 CNS
SNB-75 CNS = test system: SNB-75 CNS
SR leukemia = test system: SR leukemia
SW-620 colon = test system: SW-620 colon
T-47D breast = test system: T-47D breast
TK-10 renal = test system: TK-10 renal
U251 glioblastoma = test system: U251 glioblastoma
UACC-257 melanoma = test system: UACC-257 melanoma
UACC-62 melanoma = test system: UACC-62 melanoma
UO-31 renal = test system: UO-31 renal
HCT-116 colon = test system: HCT-116 colon

## CN(C)CCOc1ccc(-c2nc(-c3ccc4c(c3)CC/C4=N\O)c(-c3ccncc3)[nH]2)cc1
786-0 renal
  GI50: 1790 nM
  TGI: 3200 nM
A498 renal
  GI50: 1880 nM
  TGI: 3310 nM
A549 NSCLC
  GI50: 1990 nM
  TGI: 4020 nM
ACHN renal
  GI50: 2140 nM
  TGI: 4320 nM
BT-549 breast
  GI50: 1960 nM
  TGI: 3390 nM
CAKI-1 renal
  GI50: 1980 nM
  TGI: 3430 nM
CCRF-CEM leukemia
  GI50: 1880 nM
  TGI: 3290 nM
COLO 205 colon
  GI50: 20.3 nM
  TGI: 1130 nM
DU-145 prostate
  GI50: 3090 nM
  TGI: 9610 nM
EKVX NSCLC
  GI50: 1890 nM
  TGI: 3430 nM
HCC-2998 colon
  GI50: 1690 nM
  TGI: 3080 nM
HCT-15 colon
  GI50: 2450 nM
  TGI: 6460 nM
HL-60(TB) leukemia
  GI50: 941 nM
  TGI: 2090 nM
HOP-62 NSCLC
  GI50: 1850 nM
  TGI: 3260 nM
HOP-92 NSCLC
  GI50: 1740 nM
  TGI: 3120 nM
HS 578T breast
  GI50: 1880 nM
  TGI: 3290 nM
HT29 colon
  GI50: 555 nM
  TGI: 2060 nM
IGROV1 ovarian
  GI50: 13100 nM
  TGI: 25900 nM
K-562 leukemia
  GI50: 1970 nM
  TGI: 3430 nM
KM12 colon
  GI50: 1900 nM
  TGI: 3330 nM
LOX IMVI melanoma
  GI50: 963 nM
  TGI: 2160 nM
M14 melanoma
  GI50: 33.4 nM
  TGI: 839 nM
MALME-3M melanoma
  GI50: 10.6 nM
  TGI: 34.2 nM
MCF7 breast
  GI50: 1460 nM
  TGI: 2810 nM
MDA-MB-231 breast
  GI50: 1150 nM
  TGI: 2370 nM
MDA-MB-435 melanoma
  GI50: 58.9 nM
  TGI: 1600 nM
MDA-MB-468 breast
  GI50: 2140 nM
  TGI: 3580 nM
MOLT-4 leukemia
  GI50: 2150 nM
  TGI: 3600 nM
NCI-H226 lung
  GI50: 2320 nM
  TGI: 3780 nM
NCI-H23 lung
  GI50: 1380 nM
  TGI: 2860 nM
NCI-H322M lung
  GI50: 1850 nM
  TGI: 3510 nM
NCI-H460 NSCLC
  GI50: 1890 nM
  TGI: 3380 nM
NCI-H522 lung
  GI50: 1590 nM
  TGI: 2950 nM
NCI/ADR-RES ovarian
  GI50: 21900 nM
  TGI: 58300 nM
OVCAR-3 ovarian
  GI50: 2070 nM
  TGI: 3520 nM
OVCAR-4 ovarian
  GI50: 2680 nM
  TGI: 4170 nM
OVCAR-5 ovarian
  GI50: 1860 nM
  TGI: 3320 nM
OVCAR-8 ovarian
  GI50: 1890 nM
  TGI: 3320 nM
PC-3 prostate
  GI50: 1780 nM
  TGI: 3270 nM
RPMI-8226 leukemia
  GI50: 1900 nM
  TGI: 3360 nM
RXF 393 renal
  GI50: 1680 nM
  TGI: 3050 nM
SF-268 CNS
  GI50: 1810 nM
  TGI: 3220 nM
SF-295 CNS
  GI50: 7010 nM
  TGI: 19100 nM
SF-539 CNS
  GI50: 2140 nM
  TGI: 3600 nM
SK-MEL-28 melanoma
  GI50: 27.7 nM
  TGI: 198 nM
SK-MEL-5 melanoma
  GI50: 130 nM
  TGI: 1570 nM
SK-OV-3 ovarian
  GI50: 1790 nM
  TGI: 3190 nM
SN12C renal
  GI50: 14200 nM
  TGI: 27300 nM
SNB-19 CNS
  GI50: 2070 nM
  TGI: 4060 nM
SNB-75 CNS
  GI50: 2070 nM
  TGI: 3510 nM
SR leukemia
  GI50: 1710 nM
  TGI: 3090 nM
SW-620 colon
  GI50: 2360 nM
  TGI: 3850 nM
T-47D breast
  GI50: 1880 nM
  TGI: 3300 nM
TK-10 renal
  GI50: 3980 nM
  TGI: 13000 nM
U251 glioblastoma
  GI50: 2010 nM
  TGI: 3480 nM
UACC-257 melanoma
  GI50: 25.7 nM
  TGI: 164 nM
UACC-62 melanoma
  GI50: 22.6 nM
  TGI: 285 nM
UO-31 renal
  GI50: 15800 nM
  TGI: 29500 nM

## C[C@@H]1COCCN1c1cc(C2([S@](C)(=N)=O)CC2)nc(-c2ccnc3[nH]ccc23)n1
786-0 renal
  GI50: 718 nM
  TGI: 4250 nM
A498 renal
  GI50: 398 nM
  TGI: 1950 nM
A549 NSCLC
  GI50: 3100 nM
  TGI: 21200 nM
ACHN renal
  GI50: 826 nM
  TGI: 6370 nM
BT-549 breast
  GI50: 573 nM
  TGI: 3510 nM
CAKI-1 renal
  GI50: 2740 nM
  TGI: 22800 nM
CCRF-CEM leukemia
  GI50: 337 nM
  TGI: 1400 nM
COLO 205 colon
  GI50: 7720 nM
  TGI: 83700 nM
DU-145 prostate
  GI50: 2800 nM
  TGI: > 100000 nM
EKVX NSCLC
  GI50: 6530 nM
  TGI: 59900 nM
HCC-2998 colon
  GI50: 231 nM
  TGI: 1600 nM
HCT-116 colon
  GI50: 1390 nM
  TGI: 14600 nM
HCT-15 colon
  GI50: 1900 nM
  TGI: 56100 nM
HL-60(TB) leukemia
  GI50: 666 nM
  TGI: 1910 nM
HOP-62 NSCLC
  GI50: 1100 nM
  TGI: 4390 nM
HOP-92 NSCLC
  GI50: 1160 nM
  TGI: 6770 nM
HS 578T breast
  GI50: 336 nM
  TGI: 1720 nM
HT29 colon
  GI50: 3170 nM
  TGI: 9920 nM
IGROV1 ovarian
  GI50: 1870 nM
  TGI: 21600 nM
K-562 leukemia
  GI50: 1630 nM
  TGI: 3700 nM
KM12 colon
  GI50: 734 nM
  TGI: 16500 nM
LOX IMVI melanoma
  GI50: 2340 nM
  TGI: 12600 nM
M14 melanoma
  GI50: 896 nM
  TGI: 3260 nM
MALME-3M melanoma
  GI50: 3870 nM
  TGI: 18000 nM
MCF7 breast
  GI50: 431 nM
  TGI: > 100000 nM
MDA-MB-231 breast
  GI50: 6100 nM
  TGI: > 100000 nM
MDA-MB-435 melanoma
  GI50: 3460 nM
  TGI: > 100000 nM
MDA-MB-468 breast
  GI50: 2900 nM
  TGI: 15500 nM
MOLT-4 leukemia
  GI50: 342 nM
  TGI: 1520 nM
NCI-H226 lung
  GI50: 16300 nM
  TGI: 59300 nM
NCI-H23 lung
  GI50: 792 nM
  TGI: 2400 nM
NCI-H322M lung
  GI50: 815 nM
  TGI: 4990 nM
NCI-H460 NSCLC
  GI50: 455 nM
  TGI: 8990 nM
NCI-H522 lung
  GI50: 12800 nM
  TGI: 81600 nM
NCI/ADR-RES ovarian
  GI50: 25400 nM
  TGI: > 100000 nM
OVCAR-3 ovarian
  GI50: 1940 nM
  TGI: 23800 nM
OVCAR-4 ovarian
  GI50: 2030 nM
  TGI: 31000 nM
OVCAR-8 ovarian
  GI50: 3770 nM
  TGI: 16300 nM
PC-3 prostate
  GI50: 6970 nM
  TGI: > 100000 nM
RPMI-8226 leukemia
  GI50: 694 nM
  TGI: 2260 nM
RXF 393 renal
  GI50: 1280 nM
  TGI: 3930 nM
SF-268 CNS
  GI50: 3350 nM
  TGI: 46300 nM
SF-295 CNS
  GI50: 1970 nM
  TGI: 7740 nM
SF-539 CNS
  GI50: 640 nM
  TGI: 2690 nM
SK-MEL-28 melanoma
  GI50: 18300 nM
  TGI: 81800 nM
SK-MEL-5 melanoma
  GI50: 5240 nM
  TGI: 18700 nM
SK-OV-3 ovarian
  GI50: 1590 nM
  TGI: 10500 nM
SN12C renal
  GI50: 4380 nM
  TGI: 55900 nM
SNB-19 CNS
  GI50: 4390 nM
  TGI: 43400 nM
SNB-75 CNS
  GI50: 3510 nM
  TGI: > 100000 nM
SR leukemia
  GI50: 32.2 nM
  TGI: 125 nM
SW-620 colon
  GI50: 4880 nM
  TGI: > 100000 nM
T-47D breast
  GI50: 18700 nM
  TGI: > 100000 nM
TK-10 renal
  GI50: 412 nM
  TGI: 2420 nM
U251 glioblastoma
  GI50: 3000 nM
  TGI: 41800 nM
UACC-257 melanoma
  GI50: 22400 nM
  TGI: > 100000 nM
UACC-62 melanoma
  GI50: 2430 nM
  TGI: 36800 nM
UO-31 renal
  GI50: 2820 nM
  TGI: 25500 nM
